In brackets after ≈: the same amount, converted by molar mass. Where a SMILES comes first, the peptide text is derived from it. Bridges are numbered along the chain shown (N, C = ends). Roman numbers before positions name the chains, in order.
What was measured:
[1] = physchem; format: physicochemical
Experimental: An exemplary cell culture medium containing the dipeptides alanyl tyrosine (AlaTyr) and alanyl cysteine (which forms a disulfide dimer, [AlaCys]2) was prepared. Specifically, the dipeptides, alanyl tyrosine and alanyl cysteine were added as dry powder to an aqueous basal cell culture medium containing glucose and a mixture of concentrated amino acids and mixed until dissolved. […].

[2] = 25° C., by way of comparison; cited from earlier work

solubility [1] [mg/mL] | SMILES | solubility in water [2]
~15.4 (≈ 61 mM) | C[C@H](N)C(=O)N[C@@H](Cc1ccc(O)cc1)C(=O)O [AlaTyr, alanyl tyrosine] (H-Ala-Tyr-OH) | 
 | N[C@@H](CSSC[C@H](N)C(=O)O)C(=O)O [L-Cystine] | about 0.11 g/L
~8.7 (≈ 22.7 mM) | C[C@H](N)C(=O)N[C@@H](CSSC[C@H](NC(=O)[C@H](C)N)C(=O)O)C(=O)O [[AlaCys]2 dimer, N,N′-di-L-Alanyl-L-Cystine] (I: H-Ala-Cys-OH / II: H-Ala-Cys-OH; disulfide I:2-II:2) | 

Reference: patent US12529029B2, “Cell culture medium comprising small peptides” (LIFE TECHNOLOGIES CORPORATION, priority 2010, dated 2026)
